Assay in all cases: ITC
Details in all cases: 50 mM KCl, 10 mM MgCl2; 40 mM HEPES pH 7.4

The subject of assay [1] is I39C (RNA, riboswitch) GGGUUGUAUAAGCUCGUUAAUUUGGAAUGAGCGUAUCUACCAGGCAACCGUAAAUUGCCCCAGGCUACAAUC
The test system of assay [2] is U38C (RNA, riboswitch) GGGUUGUAUAAGCUCGUUAAUUUGGAAUGAGCGUAUCCACAGGCAACCGUAAAUUGCCCCAGGCUACAAUC
In assay [3] the test system is U38G-I39C (RNA, riboswitch) GGGUUGUAUAAGCUCGUUAAUUUGGAAUGAGCGUAUCGACCAGGCAACCGUAAAUUGCCCCAGGCUACAAUC

Structures are written as SMILES.

What is called Kd is the constant that tells how readily two partners part at equilibrium. Take `Nc1nc2[nH]cnc2c(=O)[nH]1`: the Kd in assay [1] came out at 0.0017 µM; in assay [2], 1.3 µM.

Turning to `O=c1[nH]c(=O)c2[nH]cnc2[nH]1`, the Kd was 9.79 µM in assay [1] and 14.6 µM in assay [3].

For the origin of these results see publication PMC12445698 (2025).
